Test results from patent US10106577B2, “Agonists of neurotrophin receptors and their use as medicaments” (BIONURE FARMA, S.L., priority 2010, dated 2018).

Legend:
[1] = tested on: TrkB and p75 on SH-SY5Y cells; experiment: Cytometry binding assay, competition BDNF/G79-FITC in SH-SY5Y; set-up: species or system human; details: growing concentrations of BDNF
Protocol: In order to assess the binding of G79 to the TrkA (PC12 cells) and TrkB receptors (SH-SY5Y), we performed competitive binding assays by flow cytometry. In order to assess the binding competition between p75 and TrkA, PC12 cells expressing both TrkA and p75 receptors were cultivated in normal growth medium. After detaching cells by trypsin solution, 200,000 cells/well were added to tubes for the following incubations. One tube contains control untreated cells. In the other tubes, cells were pre-incubated for 45 minutes with different concentrations of NGF (0-10-20-50-100 ng/ml), that can directly bind both TrkA and p75 receptors, blocking the possible binding of G79 if it competes for the same receptors. Then, without washing the cells, G79 conjugated with FITC fluorescence (100 ng/ml) was added and so incubated the cells for 1 hour. Samples were read in a cytometer (FCAScan).
To detect the binding separately on both receptors, a prior incubation of cells (before NGF incubation) with blocking antibodies was made. The cells were preincubated for 1 hour with blocking antibody anti-p75 (1:100; Chemicon Int.), to detect the binding on TrkA, or blocking antibody anti-TrkA (1:200; AbCam) to detect the binding on p75. […] All the results are expressed as mean channel fluorescence (MCF), which is a measure of the cell surface fluorescence produced by G79-FITC binding.

[2] = tested on: HSP-27; experiment: Luminex signalling assay in SH-SY5Y; assay type: cell-based, human; details: G79 100 ng/ml and 20 μg/ml, BDNF 20 ng/ml; 30 min, 1 h, 2 h, 6 h
From the text: (§1) The human neuroblastoma cell line SH-SY5Y was used to perform Luminex signalling assays using the 10-Plex MAPK/SAPK Signaling Kit-Phosphoprotein (Millipore). This cell line expresses the TrkB receptor and the MAPK/SAPK signalling pathway is typically activated by the tyrosinkinase receptors. The phosphoprotein antibodies included into the kit are the following: ERK/MAP kinase (Thr185/Tyr187); STAT-1 (Tyr701); JNK (Thr183/Tyr185); MEK-1 (Ser212); ATF-2 (Thr69/71); p53 (Ser15); HSP27 (Ser78); c-Jun (Ser73); p38 (Thr180/Tyr182), p70 S6 kinase (Thr412); IkBα (Ser32) (purchased from Millipore).
(§2) The cells were propagated and then seeded into 24-well plates (30.000 cell/well). After 24 hours, the cells were treated with two different concentrations of NGF-receptor agonist G79: 100 ng/ml and 20 μg/ml. After adding G79 into the medium, the cells were collected in the lysis buffer of the kit at the following time points: 30 min, 1 h, 2 h, and 6 h. The assay was performed in this way to assess both time and dose effects comparing the treated samples with the untreated cells used as negative controls (unstimulated SH-SY5Y cells). BDNF was used as positive control at the concentration 20 ng/ml, which is the best working concentration known in literature. In the Luminex plate, each sample was added into a well in duplicate. After adding all the samples, the specific positive and negative controls of phosphorilation, included in the Luminex kit, were added. The assay buffer was also added in duplicate, as a background controls.
(§3) In the circles are the activated factors, while in the grey circles are the tested factors. Its effects of the SY-SY5Y cell line in the phosphorilation of several pathways were assessed using xMAP assay from Luminex. […] The levels of activation are expressed as Median Fluorescence Intensity (MFI).

[3] = tested on: ATF-2; experiment: Luminex signalling assay in SH-SY5Y; assay type: cell-based, human; details: G79 100 ng/ml and 20 μg/ml, BDNF 20 ng/ml; 30 min, 1 h, 2 h, 6 h
From the text: as §1, §2, §3

[4] = tested on: JNK; experiment: Luminex signalling assay in SH-SY5Y; assay type: cell-based, human; details: G79 100 ng/ml and 20 μg/ml, BDNF 20 ng/ml; 30 min, 1 h, 2 h, 6 h
From the text: as §1, §2, §3

[5] = tested on: STAT-1; experiment: Luminex signalling assay in SH-SY5Y; assay type: cell-based, human; details: G79 100 ng/ml and 20 μg/ml, BDNF 20 ng/ml; 30 min, 1 h, 2 h, 6 h
From the text: as §1, §2, §3

CC(C)CN(CC(=O)N(CCCN1CCCC1=O)CC(N)=O)C(=O)CNCCc1ccccc1F [Compound G79, [N-(2-(2′-Fluorophenyl)ethyl)glycyl]-[N-(2-methylpropyl)glycyl]-N-[3-(2′-oxopyrrolidinyl)propyl]glycinamide]
competition with BDNF for binding (MCF of G79-FITC) [1]: competes with BDNF to one of its receptors | HSP-27 phospho-activation (MFI) compared to unstimulated control [2]: significantly activated at 1 h after G79 treatment (both at 20 μg/ml and 100 ng/ml) | ATF-2 phospho-activation (MFI) compared to unstimulated control [3]: significantly activated at 6 h after G79 treatment (20 μg/ml) | JNK phospho-activation (MFI) compared to unstimulated control [4]: significantly activated at 6 h after G79 treatment (both at 20 μg/ml and 100 ng/ml) | STAT-1 phospho-activation (MFI) compared to unstimulated control [5]: significantly activated at 6 h after G79 treatment (20 μg/ml)
